# Laboratory results as given in patent US6391902B1, “Substituted benzofuranoindoles and indenoindoles as novel potassium channel openers” (American Home Products Corporation, priority 1998, dated 2002).
# Marks after values point to notes of the source that are not given here.
# Tests used:
# Aorta Tissue = assay: Relaxation of KCl-contracted isolated rat thoracic aortic rings (contractile force); design: species or system Sprague-Dawley rats; settings: for IC50: Rattus norvegicus; for Ratio Aorta IC50 / Bladder IC50: aorta IC50 divided by bladder IC50, tissue selectivity
# Description: The smooth muscle (aorta) relaxing activity of the compounds of this ivention was established in accordance with standard pharmaceutically accepted test procedures with representative compounds as follows.
# Male Sprague-Dawley rats (150-200 g) are rendered unconscious by CO2 asphyxiation and then euthanized by cervical dislocation. The thoracic aorta is removed into warm (37° C.) physiological sial solution (PSS) of the following composition (mM): NaCl, 118.4; KCl, 4.7; CaCl2, 2.5; MgSO4.7H2O, 1.2; NaHCO3, 24.9; KH2PO4, 1.2; glucose, 11.1; EDTA, 0.023; gassed with 95% O2/5% CO2; pH 7.4. The aorta is cleaned of fat and loose adventitia and cut into rings 3-4 mm in width. The rings are subsequently suspended between two stainless steel wire tissue holders in a 10 mL tissue bath. One wire tissue holder is attached to a fixed hook while the other is attached to an isometric force transducer. Resting tension is set at 1 g. The tissues are to recover for a period of 60 min prior to beginning the experiment. Tissues are challenged with PSS containing 25 mM KCl to elicit a contracture. The tissues are then washed repeatedly with fresh PSS over a period of 30 min and allowed to recover to baseline tension. PSS containing 30-35 mM KCl is then introduced into the tissue bath to evoke a contracture that is allowed to stabilize for not less than 45 min. (Other stimuli such as norepinephrine, PGF2a, histamine, angiotensin II, endothelin or PSS containing 80 mM KCl may also be used to evoke a contracture as necessary). Increasing concentrations of test compound or vehicle are then added to the tissue bath in a cumulative fashion.
# Isometric force development by the aortic rings is measured using a force transducer and recorded on a polygraph. The percentage inhibition of contractile force evoked by each concentration of a given test compound is used to generate a concentration-response curve. […] [Log concentration versus response curves are approximately linear between 20% and 80% of the maximum response. As such, the IC50 concentration of the drug is determined by linear regression analysis (where x=log concentration and y=% inhibition) of the data points in the 20% to 80% region of the curve.] […] Data collected from 2 animals are averaged for primary screens.
# Bladder Tissue = assay: Relaxation of KCl-stimulated isolated rat bladder strips (contractile activity); design: species or system Sprague-Dawley rats; settings: for inhibition at 30 µM: read-out: Bladder Tissue I = Percent inhibition at 30 μM
# Description: Sprague-Dawley rats (150-200 g) are rendered unconscious by CO2 asphyxiation and then euthanized by cervical dislocation. The bladder is removed into warm (37° C.) physiological salt solution (PSS) of the following composition (mM): NaCl, 118.4; KCl, 4.7; CaCl2, 2.5; […]; NaHCO3, 24.9; KH2PO4, 1.2; glucose, 11.1; EDTA, 0.023; gassed with 95% O2; […]; pH 7.4. The bladder is opened and then cut into strips 1-2 mm in width and 7-10 mm in length. The strips are subsequently suspended in a 10 mL tissue bath under an initial resting tension of 1.5 g. The strips are held in place by two surgical clips one of which is attached to a fixed hook while the other is attached to an isometric force transducer. […] The carbachol is then washed out and the tissue allowed to relax to its resting level of activity. Following a further 30 min period of recovery an additional 15 mM KCl re introduced into the tissue bath. […] Following stabilization of this enhanced level of contractile activity, incremental increases in the concentration of test compound or vehicle are introduced into the tissue bath. Contractile activity is measured for each compound or vehicle concentration during the last minute of a 30 minute challenge.
# [1] = rat bladder strips, additional 15 mM KCl, 30 μM test compound
Compound,melting point,IC50 (Aorta Tissue) [µM],"IC50 (Bladder Tissue; Rattus norvegicus, 0.5 h) [µM]",inhibition at 30 µM (Bladder Tissue; [1]) [%],other results
"O.O.O=C(O)c1cccc2c1[nH]c1c3cc([N+](=O)[O-])ccc3oc21 (hydrate or solvate) [Example 4, 8-Nitro-10H-benzo[4,5]furo[3,2-b]indole-1-carboxylic acid dihydrate]",325 °C (dec.),,,,
"N#Cc1cccc2c1[nH]c1c3cc(Br)ccc3oc21.O (hydrate or solvate) [Example 10, 8-Bromo-10H-benzo[4,5]furo[3,2-b]indole-1-carbonitrile hydrate]",277 to 280 °C (dec.),,,,
"O=C(O)c1cccc2c1[nH]c1c3cc(I)ccc3oc21 [Example 2, 8-Iodo-10H-benzo[4,5]furo[3,2-b]indole-1-carboxylic acid]",297 °C (dec.),128 ± 16.9,6.1 ± 3,,Ratio Aorta IC50 / Bladder IC50 (Aorta Tissue): 21
"O.O.O=C(O)c1cccc2c1[nH]c1c3cc([N+](=O)[O-])ccc3oc21 [Example 4, 8-Nitro-10H-benzo[4,5]furo[3,2-b]indole-1-carboxylic acid dihydrate]",,125 ± 13.8,6.3 ± 2.6,,Ratio Aorta IC50 / Bladder IC50 (Aorta Tissue): 19.8
"NC(=O)c1cccc2c1[nH]c1c3cc(Br)ccc3oc21 [Example 5, 8-Bromo-10H-benzo[4,5]furo[3,2-b]indole-1-carboxylic acid amide]",300 to 301 °C,,,13.5,
"COC(=O)c1cccc2c1[nH]c1c3cc(Br)ccc3oc21 [Example 6, 8-Bromo-10H-benzo[4,5]furo[3,2-b]indole-1-carboxylic acid methyl ester]",204 to 205 °C,,,31,
"OCc1cccc2c1[nH]c1c3cc(Br)ccc3oc21 [Example 7, (8-Bromo-10H-benzo[4,5]furo[3,2-b]indol-1-yl)-methanol]",218 to 219 °C,,,,
"CN(O)C(=O)c1cccc2c1[nH]c1c3cc(Br)ccc3oc21 [Example 8, 8-Bromo-10H-benzo[4,5]furo[3,2-b]indole-1-carboxylic acid hydroxy-methyl amide]",174 to 175 °C,8.1 ± 3.6,19.8 ± 4.02,,Ratio Aorta IC50 / Bladder IC50 (Aorta Tissue): 0.41
"N#Cc1cccc2c1[nH]c1c3cc(Br)ccc3oc21 [Example 10, 8-Bromo-10H-benzo[4,5]furo[3,2-b]indole-1-carbonitrile hydrate]",,,,10.1,
"Brc1ccc2oc3c4cccc(-c5nnn[nH]5)c4[nH]c3c2c1 [Example 11, 8-Bromo-1-(1H-tetrazol-5-yl)-10H-benzo[4,5]furo[3,2-b]indole]",275 to 277 °C (dec.),,,30.9,
"CCC(C)(C)NC(=O)c1cccc2c1[nH]c1c3cc(Br)ccc3oc21 [Example 13, 8-Bromo-10H-benzo[4,5]furo[3,2-b]indole-1-carboxylic acid (1,1-dimethyl-propyl)-amide]",242 to 244 °C (dec.),,,28.5,
"COC(=O)c1cccc2c3oc4ccc(Br)cc4c3n(C)c12 [Example 15, 8-Bromo-10-methyl-10H-benzo[4,5]furo[3,2-b]indole-1-carboxylic acid methyl ester]",195 to 196 °C,,,4.5,
"O=C(O)c1cccc2c1Cc1c-2[nH]c2ccc(I)cc12 [Example 17, 8-Iodo-5,10-dihydro-indeno[1,2-b]indole-1-carboxylic acid 0.6 hydrate]",,,,,"IC50 (Bladder Tissue; rat bladder strips, additional 15 mM KCl, 50% inhibition of pre-drug contractile activity, 30 minute challenge): 10.1 ± 3.2 µM"
"NS(=O)(=O)c1ccc2[nH]c3c(c2c1)Cc1c(C(=O)O)cccc1-3.NS(=O)(=O)c1ccc2[nH]c3c(c2c1)Cc1c(C(=O)O)cccc1-3.O [Example 18, 8-Sulfamoyl-5,10-dihydro-indeno[1,2-b]indole-1-carboxylic acid hemi-hydrate]",,,,,Bladder Tissue I = Percent inhibition at 30 μM (Bladder Tissue; [1]): I = 5.2%*
"O=C(O)c1cccc2c1Cc1c-2[nH]c2ccc(OC(F)(F)F)cc12 [Example 21, 8-Trifluoromethoxy-5,10-dihydro-indeno[1,2-b]indole-1-carboxylic acid]",256 to 265 °C (dec.),,15.4 ± 4.8,,
"O=C(O)c1cccc2c1Cc1c-2[nH]c2ccc(Br)cc12 [Example 25, 8-Bromo-5,10-dihydro-indeno[1,2-b]indole-1-carboxylic acid]",328 to 330 °C (dec.),110 ± 12.4,4.4 ± 0.95,,Ratio Aorta IC50 / Bladder IC50 (Aorta Tissue): 25

# Second part, led by results:
melting point,IC50 (Aorta Tissue) [µM],"IC50 (Bladder Tissue; Rattus norvegicus, 0.5 h) [µM]",Compound,inhibition at 30 µM (Bladder Tissue; [1]) [%],other results
312 to 313 °C,119 ± 21.8,15.1 ± 4.7,"O=C(O)c1cccc2c1[nH]c1c3cc(Br)ccc3oc21 [Example 1, 8-Bromo-10H-benzo[4,5]furo[3,2-b]indole-1-carboxylic acid]",,Ratio Aorta IC50 / Bladder IC50 (Aorta Tissue): 7.9
303 °C (dec.),268 ± 82.3,5.8 ± 1.5,"O=C(O)c1cccc2c1[nH]c1c3cc(Cl)ccc3oc21 [Example 3, 8-Chloro-10H-benzo[4,5]furo[3,2-b]indole-1-carboxylic acid]",,Ratio Aorta IC50 / Bladder IC50 (Aorta Tissue): 46.2
280 to 281 °C,,,"O=Cc1cccc2c1[nH]c1c3cc(Br)ccc3oc21 [Example 9, 8-Bromo-10H-benzo[4,5]furo[3,2-b]indole-1-carbaldehyde]",19,
173 to 175 °C,25 ± 3.9,13.9 ± 0.95,"CC(NC(=O)c1cccc2c1[nH]c1c3cc(Br)ccc3oc21)C(C)(C)C (stereo not drawn) [Example 12, 8-Bromo-10H-benzo[4,5]furo[3,2-b]indole-1-carboxylic acid (1,2,2-trimethyl-propyl)-amide]",,Ratio Aorta IC50 / Bladder IC50 (Aorta Tissue): 1.8
264 to 265 °C (dec.),,,"CNC(=O)c1cccc2c1[nH]c1c3cc(Br)ccc3oc21 [Example 14, 8-Bromo-10H-benzo[4,5]furo[3,2-b]indole-1-carboxylic acid methylamide]",4.8,
279 to 280 °C (dec.),,31 ± 6.5,"O=C(O)c1cccc2c1[nH]c1c3ccccc3oc21 [Example 16, 10H-Benzo[4,5]furo[3,2-b]indole-1-carboxylic acid]",,
> 300 °C,46.6 ± 18.7,12.5 ± 5,"O=C(O)c1cccc2c1Cc1c-2[nH]c2ccc(F)cc12 [Example 19, 8-Fluoro-5,10-dihydro-indeno[1,2-b]indole-1-carboxylic acid]",,Ratio Aorta IC50 / Bladder IC50 (Aorta Tissue): 3.74
> 300 °C,,22.6 ± 1.8,"O=C(O)c1cccc2c1Cc1c-2[nH]c2ccc(Cl)cc12 [Example 20, 8-Chloro-5,10-dihydro-indeno[1,2-b]indole-1-carboxylic acid]",,
202 to 204 °C,,,"CCOC(=O)c1cccc2c1Cc1c-2[nH]c2ccc(Cl)cc12 [Example 22, 8-Chloro-5,10-dihydro-indeno[1,2-b]indole-1-carboxylic acid ethyl ester]",8,
198 to 200 °C,,,"CCOC(=O)c1cccc2c1Cc1c-2[nH]c2ccc(Br)cc12 [Example 23, 8-Bromo-5,10-dihydro-indeno[1,2-b]indole-1-carboxylic acid ethyl ester]",20,
245 to 247 °C (dec.),210 ± 45,,"O=C(O)c1cccc2c3c([nH]c12)-c1cc(Br)ccc1C3 [Example 26, 3-Bromo-5,10-dihydro-indeno[1,2-b]indole-6-carboxylic acid]",,
